Active and inactive are the calls of the source. No cut-off for these calls is given here.
What was measured:
Mus musculus [1] = test: Ability to inhibit seizures induced by mercaptopropionic acid in mice administered per orally; assay type: functional; details: po
Mus musculus [2] = test: Ability to inhibit seizures induced by electroshock in mice administered per orally; assay type: functional; details: po
Mus musculus [3] = test: Ability to inhibit seizures induced by pentylenetetrazole in mice administered per orally; assay type: functional; details: po
Rattus norvegicus [4] = test: Ability to potentiate pentobarbital-induced sleep administered per orally; assay type: functional; details: po
Mus musculus [5] = test: Ability to inhibit seizures induced by electroshock in mice administered per orally; i = inactive; assay type: functional, organism-based
[6] = (§1) Acute toxicity administered per orally; assay type: organism-based; details: mouse, in vivo, po
Mus musculus [7] = test: Ability to inhibit seizures induced by mercaptopropionic acid in mice administered per orally; i = inactive; assay type: functional, organism-based
Rattus norvegicus [8] = test: Ability to potentiate pentobarbital-induced sleep administered per orally; i = inactive; assay type: functional, organism-based
Mus musculus [9] = test: as §1; assay type: functional; details: po

Structure (SMILES)	ED50 (Mus musculus [1])	ED50 (Mus musculus [2])	ED50 (Mus musculus [3])	ED50 (Rattus norvegicus [4])	ED50 (Mus musculus [5])	LD50 [6]	ED50 (Mus musculus [7])	ED50 (Rattus norvegicus [8])	LD50 (Mus musculus [9])
CCCC(CCC)C(=O)[O-].[Na+] [VALPROATE SODIUM]	200 mg/kg	206 mg/kg	200 mg/kg						
CCCCCc1cc(O)c2c(c1)SC(C)(C)C/C2=N\CC(C)O (stereo not given)			14.3 mg/kg	10 mg/kg	inactive	> 800 mg/kg			
CCCCCc1cc(O)c2c(c1)OC(C)(C)C/C2=N\CC(C)O (stereo not given)			24.3 mg/kg		inactive	800 mg/kg	inactive	inactive	
CCCCCc1cc(O)c2c(c1)SC(C)(C)C[C@H]2NCC(C)O (stereo not given in full)	8.8 mg/kg	20.6 mg/kg	4.8 mg/kg	9.7 mg/kg		> 1600 mg/kg			
CN1C(=O)CN=C(c2ccccc2)c2cc(Cl)ccc21 [DIAZEPAM]	0.7 mg/kg	1.2 mg/kg	0.5 mg/kg						
CCCCCc1cc(O)c2c(c1)SC(C)(C)C/C2=N\CCO			24 mg/kg		inactive		inactive	inactive	> 800 mg/kg
CCCCCc1cc(O)c2c(c1)OC(C)(C)C/C2=N\C[C@@H](C)O	9.4 mg/kg	13.8 mg/kg	14 mg/kg			800 mg/kg		inactive	
CCCCc1cc(O)c2c(c1)OC(C)(C)C[C@H]2NCC(C)O (stereo not given in full)			15.5 mg/kg	14.2 mg/kg	inactive	800 mg/kg	inactive		
CCCCCc1cc(O)c2c(c1)OC(C)(C)C/C2=N\CCO			19 mg/kg		inactive	> 800 mg/kg	inactive	inactive	

— ChEMBL document CHEMBL1125120, “Synthesis and anticonvulsant and sedative-hypnotic activity of 4-(alkylimino)-2,3-dihydro-4H-1-benzopyrans and -benzothiopyrans” (J Med Chem, 1990)
